This is an account of results in paper PMC9856044 (Biomolecules, 2023).

The experiment addresses poly A–poly U (AU-RNA). As to the kind of experiment: Fluorimetric titration with AU-RNA. In kind it is binding. The method, then:
Materials. Polynucleotides were purchased as noted: poly A–poly U, calf thymus ctDNA, poly(dAdT)2 and poly(dGdC)2 (Sigma-Aldrich, St. Louis, MI, USA). Polynucleotides were dissolved in Na-cacodylate buffer, I = 0.05 mol dm^−3, pH = 7.0. The calf thymus ctDNA was additionally sonicated and filtered through a […]. Polynucleotide concentration was determined spectroscopically as the concentration of phosphates. Spectrophotometric titrations were performed at pH = 7.0 (I = 0.05 mol dm^−3, sodium cacodylate buffer) by adding aliquots of polynucleotide solution into the solution of the studied compound for fluorimetric experiments and CD experiments were done by adding aliquots of the compound stock solution into the solution of a polynucleotide. In fluorimetric experiments, an excitation wavelength of λexc = 425, 431, 423, 427, 406 and 407 nm, respectively, was used to avoid the inner filter effect caused due to increasing absorbance of the polynucleotide. Emission was collected in the range λem = 400–700 nm. Values for Ka obtained by processing titration data using the Scatchard equation [27], all have satisfactory correlation coefficients (≥0.98). Furthermore, linear changes were evident with increasing DNA or RNA concentration in most titrations. The exceptions to this were titrations of cyanine 3 with GC-DNA and titrations of dye 5 with ds-DNA and ds-RNA where sufficient data points in the non-linear part of the curve allowed estimation of binding affinity (Ka values were of the order 10^5 mol^−1 dm^−3; Figures S16, S22 and S23 in SI). Titration data were collected at a high excess of polynucleotide binding sites (r[1–6]/[nucleotide phosphate] < 0.1; see Figures S9–S26 in SI) where each molecule can bind to a separate binding site. Binding affinities of dye-DNA/RNA complexes were calculated by non-linear fitting using the Scatchard equation [27, 33]. The fluorescence changes of dye 5 in the titration with AT-DNA were too small to obtain an accurate binding constant (Figure S21 in SI).

SMILES strings stand for the structures.

Take `C[n+]1c(/C=C2\Sc3ccccc3N2CCCS)[se]c2ccccc21` [Compound 5, 2-((3-(3-mercaptopropyl)benzo[d]thiazol-2(3H)-ylidene)methyl)-3-methylbenzo[d][1,3]selenazol-3-ium methosulphate]: the “log Ka” value (AU-RNA) is listed as 5. Moreover, the “Ka (order of magnitude)” value (ds-RNA (AU-RNA), sodium cacodylate buffer, pH 7.0, I = 0.05 mol dm^−3, Scatchard equation) was ~10^5 mol^−1 dm^−3. In addition, the “K (fit parameter of titration curve)” value (poly A – poly U, pH=7.0, sodium cacodylate buffer, I = 0.05 mol dm-3) is 133756.34591 ±30379564.80418.
